Results: PubChem BioAssay (NCI)
Where “and” joins values, the source holds several entries; their conditions need not be identical. Equal values may be shown once.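 1) Cells in 96-well plates. 2) Compound, 48 h, 5 concentrations. 3) Linear interpolation between surrounding doses. 4) Unreached endpoint = highest concentration. At the GI50, growth is halved. TGI marks complete inhibition of growth.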

Columns and labels:
Experiment in all cases: NCI anticancer screen, dose series, 48 h
HCC-2998 colon = system: HCC-2998 colon
SNB-19 CNS = system: SNB-19 CNS
OVCAR-5 ovarian = system: OVCAR-5 ovarian
786-0 renal = system: 786-0 renal
NCI-H226 lung = system: NCI-H226 lung
HOP-92 NSCLC = system: HOP-92 NSCLC
U251 CNS = system: U251 CNS
HT29 colon = system: HT29 colon
CCRF-CEM leukemia = system: CCRF-CEM leukemia
BT-549 breast = system: BT-549 breast

SMILES | TGI (HCC-2998 colon) | TGI (SNB-19 CNS) | TGI (OVCAR-5 ovarian) | TGI (786-0 renal) | TGI (NCI-H226 lung) | TGI (HOP-92 NSCLC) | TGI (U251 CNS) | TGI (HT29 colon) | TGI (CCRF-CEM leukemia) | TGI (BT-549 breast) | GI50 (786-0 renal) | GI50 (BT-549 breast) | GI50 (SNB-19 CNS) | GI50 (OVCAR-5 ovarian) | GI50 (NCI-H226 lung) | GI50 (HOP-92 NSCLC) | GI50 (U251 CNS) | GI50 (HT29 colon) | GI50 (CCRF-CEM leukemia) | GI50 (HCC-2998 colon)
COC1[C@H](NC(=O)OC(C)(C)C)C(=O)N1Cc1ccccc1 (some centres undefined) | > 100 µM | > 100 µM | > 100 µM | > 100 µM | > 100 µM | > 100 µM | > 100 µM | > 100 µM | > 100 µM |  |  |  |  |  |  |  |  |  |  | 
Cc1cc(=O)n(-c2c(C)cccc2Cl)c(/C=C(\O)c2ccncc2)n1 | > 100 µM | > 100 µM | > 100 µM | > 100 µM | > 100 µM | > 100 µM | > 100 µM | > 100 µM | > 100 µM |  |  |  |  |  |  |  |  |  |  | 
C[C@H](CS)C(=O)N1c2ccccc2C[C@H]1C(=O)O | > 100 µM | > 100 µM | > 100 µM | > 100 µM | > 100 µM |  | > 100 µM | > 100 µM | > 100 µM | > 100 µM |  |  |  |  |  |  |  |  |  | 
CC(=O)OC(C)(C)/C=C/C(=O)[C@](C)(O)[C@H]1[C@H](O)C[C@@]2(C)[C@@H]3CC=C4[C@@H](C=C(O)C(=O)C4(C)C)[C@]3(C)C(=O)C[C@]12C | 1.56 µM and 0.542 µM and 0.962 µM |  | 6.67 µM and 4.02 µM and 1.09 µM |  | 93.7 nM [middle of 4 runs] |  |  |  |  | 0.0846 µM | 0.0154 µM |  |  |  |  |  |  |  |  | 
CCN(CC)c1ccc2nc3c4ccccc4c(=O)cc-3n(-c3ccccc3)c2c1 |  | > 100 µM | > 100 µM | 8.86 µM | 5.81 µM | 4.78 µM | 6.61 µM | 8.42 µM | 7.72 µM | 5.06 µM | 2.66 µM | 1.95 µM | 3.32 µM | 2.92 µM | 2.04 µM | 1.24 µM | 1.49 µM | 0.902 µM | 2.33 µM | 
CN(C)C(=O)NC(=S)N(C)C | > 100 µM | > 100 µM | > 100 µM | > 100 µM | > 100 µM | > 100 µM | 14 µM | > 100 µM | > 100 µM |  |  |  |  |  |  |  |  |  |  | 
O=C(COc1ccc(OCC(=O)N2C(=O)CN(c3ccccc3)C2=S)cc1)N1C(=O)CN(c2ccccc2)C1=S | > 100 µM | > 100 µM | > 100 µM | > 100 µM | > 100 µM | > 100 µM | > 100 µM | > 100 µM |  | > 100 µM | > 25 µM |  | > 25 µM | > 25 µM |  |  | > 25 µM | > 25 µM |  | > 25 µM
CCCCCCCCCCSC(=O)NC | > 100 µM | > 100 µM | > 100 µM | > 100 µM |  | 57.8 µM | 68.4 µM | 77 µM | 48.3 µM |  |  |  |  |  |  |  |  |  |  | 
CN(C)C=NC1CCC(C(C)(C)C)CC1 (centres undefined) | 27.9 µM | 39.9 µM | 37.2 µM | 33.3 µM | 41.3 µM | 34.6 µM | 31.2 µM | 21.6 µM |  | 34 µM |  |  |  |  |  |  |  |  |  | 
O=C1C=CC(=Nc2cccc3c(N=C4C=CC(=O)O4)cccc23)O1 | > 100 µM | > 100 µM | > 100 µM | 34.5 µM | > 100 µM | > 100 µM | > 100 µM | > 100 µM |  | > 100 µM |  |  |  |  |  |  |  |  |  | 
Clc1ccc(OCc2nnc3n2N=C(c2ccc(Br)cc2)CS3)cc1 | > 100 µM | 75.1 µM | > 100 µM | > 100 µM | > 100 µM | 41 µM | > 100 µM | > 100 µM | > 100 µM |  |  |  |  |  |  |  |  |  |  | 
C(=Nc1cnc2ccccc2c1)c1ccc2ccccc2n1 |  | > 100 µM | > 100 µM | > 100 µM | > 100 µM | > 100 µM | > 100 µM | > 100 µM | > 100 µM | > 100 µM |  |  |  |  |  |  |  |  |  | 
OCc1ccc(N2CCc3cc(F)ccc3C2)cc1Cl | 12.8 µM | 26.3 µM |  | 22.7 µM |  | 6.36 µM | 14 µM | 14.1 µM | 28.9 µM | 28.7 µM | 8.64 µM | 15.1 µM | 13.2 µM |  |  | 0.199 µM | 0.0933 µM | 0.167 µM | 3.9 µM | 1.58 µM
O=C(N/C(=C\c1ccccc1Cl)c1nc2ccccc2[nH]1)c1ccccc1 | 91 µM | > 100 µM | > 100 µM | > 100 µM |  | 34.1 µM | > 100 µM | 87.2 µM | > 100 µM |  |  |  |  |  |  |  |  |  |  | 
CN(C)CCn1cnc2ncccc2c1=O | > 100 µM | > 100 µM | > 100 µM | > 100 µM | > 100 µM | > 100 µM | > 100 µM | > 100 µM | > 100 µM |  |  |  |  |  |  |  |  |  |  | 
CCOC(=O)C(NO)C(Sc1ccccc1)c1ccc(OC)cc1 (centres undefined) | > 100 µM | > 100 µM | > 100 µM | > 100 µM | > 100 µM | > 100 µM | > 100 µM | > 100 µM |  |  |  |  |  |  |  |  |  |  |  | 
COC(=O)C1C(=O)O[C@@H](c2ccc(OC)c(OC)c2OC)C1C(=O)OC (mixture of isomers) | > 100 µM | > 100 µM | > 100 µM | > 100 µM | > 100 µM | > 100 µM | > 100 µM | > 100 µM | > 100 µM |  |  |  |  |  |  |  |  |  |  | 
CC1CCC(=O)C(C(O)CC2CC(=O)N(c3ccccc3)C(=O)C2)C1 (centres undefined) | > 100 µM | > 100 µM | > 100 µM | > 100 µM | > 100 µM | > 100 µM | > 100 µM | > 100 µM | > 100 µM |  |  |  |  |  |  |  |  |  |  | 
CCCCCCCCCC(CCCC(O)CC(=O)O)OC1OC(COC2OC(C)C(OC(C)=O)C(O)C2O)C(O)C(O)C1OC1OC(CO)C(O)C(O)C1OC1OC(C)C(OC(=O)CC(C)C)C(O)C1O (centres undefined) | > 35 µM | > 35 µM | > 35 µM | > 35 µM | > 35 µM |  | > 35 µM | > 35 µM | > 35 µM | > 35 µM | > 35 µM | > 35 µM | > 35 µM | > 35 µM | > 35 µM |  | > 35 µM | > 35 µM | > 35 µM | > 35 µM
CN(NC1OC(CO)C(O)C(O)C1O)c1ccccc1 (centres undefined) | > 100 µM | > 100 µM | > 100 µM | > 100 µM | > 100 µM | > 100 µM | > 100 µM | > 100 µM | > 100 µM |  |  |  |  |  |  |  |  |  |  | 
